Data on three molecules can be found in patent publication US11439696B2, “Modulation of proprotein convertase subtilisin/kexin 9 expression (PCSK9) with HSP 27 and/or HSP25” (PEMI31 Therapeutics Inc., priority 2015, dated 2022).

Where “and” joins values, the source holds several entries; their conditions need not be identical. Equal entries are not always repeated.

For series [1], the system named is PCSK9. In words: Western blot (relative densitometry) of PCSK9 expression in HepG2 (liver) cells. In kind it is cell-based. The note with it: HepG2 (liver) cells treated for 1 h (FIG. 15). How it is done: (§1) HepG2 cells (0.5×10^6 cells/60 mm well) were incubated on H-Glucose DMEM medium containing 10% FBS and 1×penicillin/streptomycin in the presence or absence of rHsp27 (200 μg) for specified time periods at 37° C. At the end of incubation period, the medium was removed and centrifuged at 4,000 rpm for 10 min at 4° C. to remove a small amount of residual cells and debris. The supernatant fraction was stored at 4° C. until analyzed.
(§2) Meanwhile, cells were washed three times with cold PBS, scraped off the dishes (after the addition of 1 ml lysis buffer (20 mM Tris-HCl; pH 8.0; 150 mM NaCl; 0.1 mM PMSF), and sonicated; whole cell lysates were then stored at −20° C. until use.
(§3) Total cell or tissue lysates were prepared in lysis buffer (20 mM Tris-Hcl pH8.0, 150 mM NaCl, 0.1% SDS, 0.1 mM PMSF). Lysates were cleared by centrifugation at 4° C., 12,000 rpm for 10 min, and protein concentrations were determined using the Bradford protein assay with BSA as the standard. […]
HepG2 cells in the 6-well plates were washed twice with phosphate-buffered saline and lifted by pipette with 1 ml PBS. […] The membrane fraction was re-suspended in PBS by sonication and the protein concentration was determined by Bradford reagent (Sigma). […] Signals on the membrane were visualized by chemi-luminescence of HRP substrate.

Another series has as its system LDL-Receptor. In words: Western blot (relative densitometry) of LDL-Receptor expression in HepG2 (liver) cells. The format is cell-based. The note with it: HepG2 (liver) cells treated for 6 h (FIG. 16). The procedure: as §1, §2, §3
A further series concerns LDL-Receptor (LDL-R). In words: LDL-Receptor fluorescent immunolabelling of HepG2 (liver) cells. Conditions: HepG2, 17β-estradiol 100 nM or rHSP27 100 μg overnight (16 hours) (FIG. 17). In kind it is cell-based. How it is done: HepG2 cells (10^5 cells) were seeded in SPL Coverglass sterile dish 35×10 mm (Bio Lab) for 2 days. Cells were then treated with 17β-estradiol (100 nM) or rHSP27 (100 μg) overnight (16 hours). After washing, cells were fixed in 4% paraformaldehyde, permeabilized in 0.5% (v/v) Triton x-100 for 10 minutes, washed, blocked in 10% horse serum (1 hour), washed, then incubated in primary antibody rabbit monoclonal to LDL-R (Ab52818; ABCAM; 1:100) 4° C. overnight. After washing, cells were incubated in secondary antibody fluorescein goat Anti-Rabbit IgG antibody (FI-1000; Vector Laboratories; 1:100) for 30 min at room temperature, then mounted with mounting medium with DAPI (VectaShield Antifade Mounting Medium with DAPI; Vector Labs H-1200) for at least 24 hour in the dark before visualization. Various controls were used, and included: (i) absence of the Triton treatement, and (ii) omitting the primary or secondary antibodies used for immunolabelling. Immunofluorescence 10^5 cells were seeded ina SPL coverglass sterile dish 35×10 mm (Bio Lab) for 2 days. The cells were then treated with 17 β-estradiol (100 nM) or rHSP27 (100 μg) overnight (16 hours). […] Mounted with mounting medium with DAPI (VectaShield Antifade Mounting Medium with DAPI; Vector Labs H-1200) for at least 24 hour in the dark before visualization with fluorescence microscopy.

A further series deals with PCSK9 mRNA. In words: PCSK9 mRNA expression in HepG2 (liver) cells by quantitative RT-PCR. The note with it: HepG2 (FIG. 14). In kind it is cell-based.
In series [2] the test system is PCSK9. Kind of series: PCSK9 secretion from HepG2 (liver) cells with increasing doses of Atorvastatin. In kind it is cell-based. Conditions: HepG2, increasing doses of AV (FIG. 12). How it is done: […] At the end of incubation period, the medium was removed and centrifuged at 4,000 rpm for 10 min at 4° C. to remove a small amount of residual cells and debris. The supernatant fraction was stored at 4° C. until analyzed.
Total cell or tissue lysates were prepared in lysis buffer (20 mM Tris-Hcl pH8.0, 150 mM NaCl, 0.1% SDS, 0.1 mM PMSF). Lysates were cleared by centrifugation at 4° C., 12,000 rpm for 10 min, and protein concentrations were determined using the Bradford protein assay with BSA as the standard. Samples (30 μl culture medium, 50 μg for cell and 25 μg for liver) were separated by SDS-PAGE under reducing conditions, transferred to IMMOBILON® PVDF (IMMOBILON is a registered trademark of Millipore Corp.) using IBLOT® Dry Blotting System (Life Technologies; IBLOT is a registered trademark of Invitrogen Corp., Carlsbad, Calif., USA) and subsequently membranes were immunoblotted with the following antibodies: LDL-R (Santa Cruz, 1:1000) and PCSK9 (Santa Cruz, 1:1000); β-Actin (Santa Cruz, 1:1000) was used as the loading control. Appropriate secondary HRP-conjugated antibodies were used prior to visualization by enhanced chemiluminescence (ECL, Life technologies).

A short description of series [3]: Stability of HSP27 in human serum at −20° C. (MRM-MS). The format is physicochemical. The note with it: two representative human sera, 3 weeks storage at −20° C. (FIG. 7E). How it is done:
The assay was fully validated according to the U.S. Food and Drug Administration (FDA) Bioanalytical method validation guideline (www.fda.dov/downloads/Drugs/GuidanceComplianceRegulatoryInformation/Guidances/UCM070107). Nine calibration standards of trypsin-digested recombinant HSP27 were prepared by serial dilution in concentrations of 1000; 500; 250; 125; 62.5; 31.25; 15.625; 7.8 and 0 ng/ml. The limit of detection (LOD) was calculated as the smallest detectable peak above baseline noise (signal-to-noise ratio>3:1). Calculating target peptide: AQUA peptide ratios of the peak area for each concentration level. Standard curves were constructed by linear regression analysis by excel. The same samples were analyzed 7 times and the repeatability was compared. Extraction efficiency and recovery were performed by comparing concentrations between samples without and with standard rHSP27. Matrix effect was assessed using double dilution test for the linearity when serum samples were 1, 2, 4 and 8 times diluted. Parallelism test was also applied to estimate matrix effect. Stability of HSP27 in human serum was estimated for 21 days at −20° C.

`C[C@]12CC[C@@H]3c4ccc(O)cc4CC[C@H]3[C@@H]1CC[C@@H]2O` [17 β-estradiol]: the “reduction in PCSK9 expression” value with PCSK9 [1] stood at 28%. Also, the “increase in LDL-Receptor expression” value with LDL-Receptor stood at 116%. In addition, the LDL-R signal entry with LDL-Receptor (LDL-R) is “increased”.

`CC(C)c1c(C(=O)Nc2ccccc2)c(-c2ccccc2)c(-c2ccc(F)cc2)n1CC[C@@H](O)C[C@@H](O)CC(=O)O` [AV, Atorvastatin]: the “PCSK9 expression (mRNA) on treatment with AV” value in the series on PCSK9 mRNA is given as “increase”. Further, the “secretion of PCSK9” value in the series with PCSK9 [2] is “dose-dependent secretion”.

Regarding “endogenous HSP27: endogenous heat shock protein 27 in human serum samples, measured by MRM-MS”, in series [3], the “endogenous HSP27 remaining after storage” value was 111+6 % of fresh sera and 87+5 % of fresh sera.
